Values quoted from earlier work, collected in US20090252807A1, “Nanoparticulate and Controlled Release Compositions Comprising Prostaglandin Derivatives” (ELAN PHARMA INTERNATIONAL LIMITED, priority 2005, published 2009).
Like-named read-outs stand apart in the source and are kept apart here.

Assays:
blood pressure = settings: 100 and 300 μg/kg orally in rats
coronary blood flow = settings: intra-coronary injection 100 ng/kg or intravenous injection 3 μg/kg, anesthetized dogs
platelet adhesiveness = settings: in vitro

Substance: (E)-7-{(1R,2R,3R)-3-hydroxy-2-[(3S,5S)-E-3hydroxy-5-methyl-1-nonenyl]-5-oxocyclopentyl}-2-heptonoic acid α-cyclodextrin inclusion compound [Limaprost]
- hypotensive effects (blood pressure): Significant hypotensive effects
- solubility in diethylether: practically insoluble
- solubility in ethanol: very slightly soluble
- solubility in ethyl acetate: practically insoluble
- solubility in water: freely soluble
- solubility in water (listed as limaprost): practically insoluble
- increase of coronary blood flow (coronary blood flow): 60-80%
- potency relative to PGE1 as an inhibitor of platelet adhesiveness (platelet adhesiveness): 10-1,000 times
